Consider three compounds from patent US5750146A, “Translucent collagen formulations with a cytotoxic drug” (Matrix Pharmaceutical, Inc., priority 1995, dated 1998).

SMILES strings stand for the structures.

Holding throughout (format): physicochemical
Data set [1] has as its system collagen. Nature of the data set: Differential Scanning Calorimetry (DSC) scan of collagen transition temperature. The settings on record: for compatibility of cytotoxic drug with collagen: judged from collagen transition temperature.
A short description of data set [2]: optical absorbance at 410 nm (optical opacity) of aqueous collagen compositions, 1 mm pathlength. The settings on record: 0.25M additive, 6.5 weight percent collagen, pH 9.1, 2° to 8° C., 10 minutes. Here is the method: Aliquots (0.5 mL) of each of the compositions were placed in microcuvet having a 1 mm pathlength at different temperatures for 10 minutes wherein the first aliquot was stored at about 12° C, the second aliquot was stored at about 8° C. and the third aliquot was stored at about 4° C. The optical opacity of each sample was then measured at 30 second intervals by determining the absorbance of light (410 nm) through the microcuvet. Lower absorbance in each case corresponds to greater optical clarity at 410 nm.
Three identical aqueous collagen compositions were prepared as above with the exception that the amount of fluorouracil incorporated into the compositions were varied to be 16.65 mg/mL, 22.2 mg/mL and 33.3 mg/mL respectively. The resulting compositions were stored at 4° C. as aliquots (0.5 mL) in microcuvets having a 1 mm pathlength for 10 minutes and the optical opacity of each sample was measured at 30 second intervals by determining the absorbance of light (410 nm) through the microcuvet. Lower absorbance in each case corresponds to greater optical clarity at 410 nm.
Both compositions were then stored at from about 2° to 8° C. as aliquots (0.5 mL) in microcuvets having a 1 mm pathlength for 10 minutes and the optical opacity of each sample was measured at 15 second intervals by determining the absorbance of light (410 nm) through the microcuvet. […]

Data set [3] is described as follows: optical appearance of aqueous collagen compositions on storage. The procedure: Mixing was conducted by repeated transfers between two syringes connected by a mixing adapter. […] The results of these scans are illustrated in FIG. 5 and 6, respectively.
A second study was conducted to determine the amount of fluorouracil required to effect clarification on an opaque aqueous collagen composition. Specifically, aqueous collagen compositions were formulated to contain collagen (21.7 mg/mL), 0.033M phosphate buffer and varying amounts of fluorouracil. Each composition was then stored at about 2° C. to 8° C. for 17 days and the optical appearance of the composition measured periodically.
Specifically, in this example, the concentration of methotrexate in the collagen composition was varied and the collagen compositions were stored for 1 day and 3 days at either at 2° C. to 8° C. or at room temperature. The results at 3 days were the same as those found after 1 day and, accordingly, Table III below sets forth only the results from day 1.
A second study was conducted by preparing collagen compositions having 0.033M potassium phosphate buffer and […]. The pH of the solution was adjusted by the addition of HCl or NaOH as necessary to modify the pHs of the compositions to approximately 5, 7, 8 and 9. The compositions were stored at either room temperature or at 2-8° C. The optical appearance of these compositions was evaluated at 1 and 11 days after storage.

In the case of `O=c1[nH]cc(F)c(=O)[nH]1` [fluorouracil, 5-fluoro-2,4-(1H, 3H)pyrimidinedione], the “compatibility of cytotoxic drug with collagen” value in data set [1] was “compatible cytotoxic drug”. Also, in data set [2], the “effect of additive on clarifying the collagen composition (FIG. 11)” value is “only fluorouracil has any significant effect on clarifying the collagen composition”. Further, the “clarifying effect on opaque collagen composition” value in data set [3] (fluorouracil at 20 mg/mL, 2° C. to 8° C.) is reported as “some clarifying affect on the opaque collagen composition”.

On to `N.N.[Cl][Pt][Cl]` [cisplatin, cis-diamino dichlororplatinum (II)], for which the “cross-linking to collagen (increase in transition temperature over time)” value in data set [1] (room temperature, up to 8 hours) is reported as “cross-linking (i.e., covalent bonding) of the cisplatin to the collagen”.

Turning to `CN(Cc1cnc2nc(N)nc(N)c2n1)c1ccc(C(=O)N[C@@H](CCC(=O)O)C(=O)O)cc1` [methotrexate], in data set [1], the “compatibility of cytotoxic drug with collagen” value is recorded as “compatible cytotoxic drug”. Besides, the “effect of refrigeration and high concentration on optical clarity” value in data set [3] (refrigeration, high concentrations of methotrexate) was “both refrigeration and high concentrations of methotrexate are effective in effecting optical clarity”.
